# In the NIST ThermoML archive (doi:10.1016/j.tca.2005.06.043):
# Numbers after ± are expanded uncertainties.
# Columns and labels:
# [1] = molar enthalpy of vaporization or sublimation; conditions: 303 K; Crystal 2; Static calorimetry
# [2] = Calculated from knudsen effusion weight loss
Compound,molar enthalpy [1] [kcal/mol],"vapor or sublimation pressure ([2]; 288.36 K, Crystal 2) [kPa]","vapor or sublimation pressure ([2]; 293.31 K, Crystal 2) [kPa]","vapor or sublimation pressure ([2]; 298.28 K, Crystal 2) [kPa]","vapor or sublimation pressure ([2]; 303.22 K, Crystal 2) [kPa]","vapor or sublimation pressure ([2]; 308.19 K, Crystal 2) [kPa]","vapor or sublimation pressure ([2]; 313.16 K, Crystal 1) [kPa]","vapor or sublimation pressure ([2]; 314.21 K, Crystal 1) [kPa]","vapor or sublimation pressure ([2]; 314.65 K, Crystal 1) [kPa]","vapor or sublimation pressure ([2]; 315.63 K, Crystal 1) [kPa]","vapor or sublimation pressure ([2]; 316.65 K, Crystal 1) [kPa]","vapor or sublimation pressure ([2]; 318.12 K, Crystal 1) [kPa]","vapor or sublimation pressure ([2]; 320.59 K, Crystal 1) [kPa]","vapor or sublimation pressure ([2]; 323.03 K, Crystal 1) [kPa]","vapor or sublimation pressure ([2]; 318.02 K, Crystal) [kPa]","vapor or sublimation pressure ([2]; 322.7 K, Crystal) [kPa]","vapor or sublimation pressure ([2]; 322.99 K, Crystal) [kPa]","vapor or sublimation pressure ([2]; 327.9 K, Crystal) [kPa]","vapor or sublimation pressure ([2]; 332.6 K, Crystal) [kPa]"
"BrC12CC3CC(CC(C3)C1)C2 [1-bromotricyclo[3.3.1.1(3,7)]decane]",17.15 ± 0.151,0.001603 ± 0.00015,0.002687 ± 0.00027,0.004279 ± 0.00045,0.006896 ± 0.00077,0.0111 ± 0.0013,0.0169 ± 0.0021,0.01766 ± 0.0022,0.01847 ± 0.0023,0.01952 ± 0.0025,0.0215 ± 0.0028,0.02411 ± 0.0032,0.02925 ± 0.0039,0.03472 ± 0.0048,,,,,
O=C(O)c1ccccc1 [benzoic acid],,,,,,,,,,,,,,,0.001022 ± 8.9e-05,0.001693 ± 0.00016,0.001744 ± 0.00016,0.00289 ± 0.00029,0.004567 ± 0.00049
